The source of these data is US20230295197A1, “STAT5 and STAT6 Degraders and Uses Thereof” (REGENTS OF THE UNIVERSITY OF MICHICAN, priority 2022, published 2023).

Test [1] deals with T1, STAT6 (Homo sapiens, UniProt P42226).
T1 construct: endogenous in cells; host or cells: MOLM-16, KU-812, SKNO1, MB231, L1236
T1 sequence (P42226 1-847): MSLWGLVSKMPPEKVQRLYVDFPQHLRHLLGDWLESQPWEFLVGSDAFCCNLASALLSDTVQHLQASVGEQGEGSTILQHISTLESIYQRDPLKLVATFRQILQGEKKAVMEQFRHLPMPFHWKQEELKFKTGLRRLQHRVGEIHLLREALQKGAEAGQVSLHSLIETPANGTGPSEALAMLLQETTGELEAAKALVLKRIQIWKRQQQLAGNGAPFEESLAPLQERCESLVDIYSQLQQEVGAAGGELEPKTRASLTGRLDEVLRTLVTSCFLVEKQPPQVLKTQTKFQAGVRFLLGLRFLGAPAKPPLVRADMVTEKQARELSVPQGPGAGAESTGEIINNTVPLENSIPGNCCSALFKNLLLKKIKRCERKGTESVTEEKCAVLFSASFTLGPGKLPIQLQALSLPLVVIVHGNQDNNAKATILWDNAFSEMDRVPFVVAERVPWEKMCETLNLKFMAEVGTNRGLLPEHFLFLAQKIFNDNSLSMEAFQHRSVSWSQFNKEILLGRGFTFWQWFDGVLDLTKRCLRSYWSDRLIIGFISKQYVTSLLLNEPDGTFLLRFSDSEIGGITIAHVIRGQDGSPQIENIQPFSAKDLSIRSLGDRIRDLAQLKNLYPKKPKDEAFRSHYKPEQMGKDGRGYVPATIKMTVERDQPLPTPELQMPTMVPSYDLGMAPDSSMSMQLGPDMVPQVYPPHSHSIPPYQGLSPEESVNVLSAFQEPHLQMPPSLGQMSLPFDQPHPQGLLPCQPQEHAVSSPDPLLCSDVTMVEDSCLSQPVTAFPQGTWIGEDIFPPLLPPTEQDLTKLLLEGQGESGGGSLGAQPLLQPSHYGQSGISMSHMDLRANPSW
The test is described as follows: Immunoblotting (Western blot) analysis of STAT6 degradation efficiency of degraders in treated cells. Format: cell-based. The conditions noted are these: MOLM-16 cells, read-out: DC50 S6 MOLM-16. The method, boiled down: (§1)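 Read-out: fluorescent IRDye 680RD/800CW secondaries imaged on an infrared scanner, with band intensities quantified by densitometry and GAPDH serving as loading control. Samples were RIPA lysates, BCA-normalised, from ~1 million treated cells.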

For test [2], the system named is STAT5. The test is described as follows: Immunoblotting (Western blot) analysis of STAT5 degradation efficiency of degraders in treated cells. Format: cell-based. The method, boiled down: as §1
The mark [3] stands for this setting: MOLM-16 cells, numeric bound, read-out: DC50 S5 MOLM-16.

Where two headings read alike, the source gives them in different places.

With `CC(C)(C)[C@H](NC(=O)c1cc2cc(C(F)(F)P(=O)(O)O)ccc2s1)C(=O)N1C[C@H](NC(=O)CCCCCC#Cc2ccc3c(c2)CN(C2CCC(=O)NC2=O)C3=O)C[C@H]1C(=O)Nc1ncc(-c2ccccc2)s1` (stereo partly drawn) [Compound 568, ((2-(((2S)-1-((2S,4R)-4-(8-(2-(2,6-dioxopiperidin-3-yl)-1-oxoisoindolin-5-yl)oct-7-ynamido)-2-((5-phenylthiazol-2-yl)carbamoyl)pyrrolidin-1-yl)-3,3-dimethyl-1-oxobutan-2-yl)carbamoyl)benzo[b]thiophen-5-yl)difluoromethyl)phosphonic acid], the 50% degradation concentration (DC50) in test [1] (numeric bound) and in test [2] (setting [3]) was above 0.3 µM each time.

For the molecule `CC(C)(C)[C@H](NC(=O)c1cc2cc(C(F)(F)P(=O)(O)O)ccc2s1)C(=O)N1CCC[C@H]1C(=O)N(CCC(=O)NCCC#Cc1cccc2c1CN(C1CCC(=O)NC1=O)C2=O)c1ccc(Br)cc1` (stereo partly drawn) [Compound 614, ((2-(((2S)-1-((2S)-2-((4-bromophenyl)(3-((4-(2-(2,6-dioxopiperidin-3-yl)-1-oxoisoindolin-4-yl)but-3-yn-1-yl)amino)-3-oxopropyl)carbamoyl)pyrrolidin-1-yl)-3,3-dimethyl-1-oxobutan-2-yl)carbamoyl)benzo[b]thiophen-5-yl)difluoromethyl)phosphonic acid], the DC50 (as a rule, the concentration giving 50% degradation) is above 10 µM in test [1] (class symbols); above 10 µM in test [2] (KU-812 cells, read-out: DC50 S5 KU-812); above 0.3 µM in test [2] (setting [3]); above 10 µM in test [2] (SKNO1 cells, read-out: DC50 S5 SKNO1).
